Starred links: 1 amine or outer side, 2 acyl side, 3 side chain; linkers in the order of their positions; H or OH if unused. Positions of bridges follow the written chain, without caps; N, C: chain ends. Residues, ends and D or L forms follow the SMILES beside them. Chains are numbered I, II in the order given. X1 = c1cc(C[*:1])ccc1COCc1ccc(C[*:2])cc1
Biological target: T1, recombinant human MYC^353–437 protein (His6-MYC^353–437) (Homo sapiens, UniProt P01106)
T1 construct: recombinant human MYC^353–437 protein; made in house; host or cells: E. coli BL21(DE3), pET151-D-TOPO-cMyc vector
T1 sequence (P01106 368-452): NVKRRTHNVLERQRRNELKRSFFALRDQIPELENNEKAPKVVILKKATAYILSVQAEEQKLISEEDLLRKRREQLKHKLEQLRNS
Assay: Fluorescence polarization direct binding of fluorescein-labeled CHDs to His6-MYC353-437
Conditions: FP direct binding; 15 nM FITC-labeled peptide; His6-MYC serial dilutions from 10 μM; 1X PBS, 1 mM DTT, 5% glycerol, 0.1% pluronic acid, pH 6.7; 25 °C; triplicate; MYC aggregates above 5 μM; read-out: Binding Affinity MYC^353-436, Kd
Experimental: pET151-D-TOPO-cMyc vector was kindly provided by Dr. Edward Prochownik from the
Department of Pediatrics at UPMC Children’s Hospital of Pittsburgh. Expression and purification
of Myc353-437 were performed using an established protocol with minor modifications.7 BL21(DE3)
cells were used to express recombinant Myc353-437 protein. Bacteria were grown at 37 °C to OD600
of 0.8 followed by 1 mM IPTG induction and 16-18h growth at RT. Cells were harvested via
centrifugation at 4,000 rpm at 4 °C and the pellet was resuspended in 10 mL of lysis buffer (8 M
urea, 100 mM NaH2PO4, 10 mM Tris HCl, pH 8) supplemented with protease inhibitor cocktail
(PierceTM Protease Inhibitor Tablets) and benzonase nuclease. Suspensions were sonicated on
ice using a Branson Cell Disruptor 200 and centrifuged at 12,000 rpm for 45 min at 4 °C. Clarified
lysate was applied to a column containing pre-equilibrated HisPur Ni-NTA Superflow Agarose
(ThermoFisher Scientific) for overnight at 4 °C. The resin beads were washed with 10 mL of
additional lysis buffer followed by three washes of 10 mL wash buffer (8 M urea, 100 mM
NaH2PO4, 10 mM Tris HCl, 10 mM imidazole). The target protein was eluted with elution buffer (8
M urea, 100 mM NaH2PO4, 10 mM Tris HCl, 250 mM imidazole) and buffer exchanged into 150
mM NaCl, 50 mM Tris HCl, 5% glycerol, pH 6.7. Protein was concentrated by ultra-filtration (3000
MWCO; Amicon Ultra-15 Centrifugal Filter units from EMD Millipore) followed by TEV cleavage
(1:100 w/w of protease to target protein) in 150 mM NaCl, 50 mM Tris HCl, 5% glycerol, pH 6.7
for 24 hrs at 4 °C. The cleaved protein is further purified by reverse-phase HPLC (gradient 10-60
acetonitrile/water with 0.1% TFA over 35 min) to remove TEV protease and un-cleaved protein.
Purified Myc353-437 was lyophilized and stored at -20 °C. Myc353-437 identity was characterized by
Fluorescence Polarization Binding Assay
The relative affinities of FITC-CHDMax-1 to His6-Myc353-436 and full-length His6-Max were
determined using fluorescence polarization-based direct binding assay. The polarization
experiments were performed using a DTX 880 Multimode Detector (Beckman) at 25 °C with
excitation and emission wavelengths of 485 and 525 nm, respectively. Each polarization
experiment was performed in a 96-well round bottom plate (Greiner) in assay buffer: 1X PBS, 1
mM DTT, 5% glycerol, 0.1% pluronic acid, pH 6.7. The binding affinity (KD) values reported for
each peptide are from experiments performed in triplicate. Raw values were fit to a sigmoidal
dose-response nonlinear regression model in GraphPad Prism 6.0.
All binding experiments with FITC-labeled peptides to His6-Myc353-436 or His6-Max were performed
under the same conditions. Briefly, serial dilutions of His6-Myc353-436 and His6-Max were made
from 10 μM into 15 nM of FITC-labeled peptide in assay buffer. KD was determined using the
KD1 = (RT*(1-FSB) + LST*FSB2)/FSB-LST
RT = Total concentration of His6-Myc353-436 or His6-Max
LST = Total concentration of FITC-labeled peptide
FSB = Fraction of bound FITC-labeled peptide

CC[C@H](C)[C@H](NC(=O)[C@H](CCCCN)NC(=O)[C@H](CCC(=O)O)NC(=O)[C@H](CCCNC(=N)N)NC(=O)[C@H](CC(C)C)NC(C)=O)C(=O)N[C@@H](C)C(=O)N[C@H](C(=O)N[C@@H](CC(C)C)C(=O)N[C@@H](CCC(N)=O)C(=O)N[C@@H](Cc1c[nH]c2ccccc12)C(=O)N[C@@H](CSCc1ccc(COCc2ccc(CSC[C@H](NC(=O)[C@H](CC(C)C)NC(=O)[C@H](CCC(=O)O)NC(=O)[C@H](CCC(=O)O)NC(=O)[C@@H](NC(=O)[C@H](CCC(=O)O)NC(=O)[C@H](Cc3c[nH]c4ccccc34)NC(=O)[C@H](CCC(N)=O)NC(=O)[C@H](Cc3c[nH]cn3)NC(=O)[C@@H](NC(=O)[C@H](CCC(=O)O)NC(=O)[C@H](CC(N)=O)NC(=O)[C@H](CCCCN)NC(=O)[C@H](CCCNC(=N)N)NC(=O)[C@H](CCCNC(=N)N)NC(=O)[C@H](CC(C)C)NC(C)=O)[C@@H](C)O)[C@@H](C)CC)C(N)=O)cc2)cc1)C(=O)N[C@H](C(=O)N[C@@H](CCC(=O)O)C(=O)N[C@@H](CCC(=O)O)C(=O)N[C@@H](CC(C)C)C(=O)N[C@@H](CCCNC(=N)N)C(=O)N[C@@H](CCCCN)C(N)=O)[C@@H](C)CC)[C@@H](C)O [CHD^Max-1] (I: Ac-LREKIATLQWCIEELRK-NH2 / II: Ac-LRRKNETHQWEIEELC-NH2; linker I:11-II:16 via X1)
Kd: 350 ± 17 nM
